The values that follow come from patent US8895548B2, “Pharmaceutical composition for treating alzheimer's disease” (Shionogi & Co., Ltd., priority 2007, dated 2014).

Tested on in the first data set: not given
Experiment: not given
Conditions: not given
In the case of `CC1(C2=CC=C(F)CC2)CCCSC(N)=N1.Cl` (centres unmarked), the melting point was 219 to 222 °C.

Take `C[C@]1(c2ccccc2)C[C@@H](c2ccccc2)SC(N)=N1.Cl`: the melting point lay within 161 to 165 °C.

For the compound `CC1(C2=CC=CCC2)CCCSC(N)=N1.Cl` (centres unmarked), the melting point lay within 223 to 225 °C.

For `C[C@]1(c2ccccc2)C[C@H](c2ccccc2)SC(N)=N1` (racemic) [Compound 835], the melting point was 139 to 140 °C.

Take `COc1ccc([C@]2(C)N=C(N)SC[C@H]2C)cc1` [Compound 8]: the melting point lay in the range of 214 to 217 °C.

In turn, `COc1ccc([C@@]2(C)C[C@H](C)SC(N)=N2)cc1` [Compound 86] yielded a melting point of 141 to 142 °C.

Consider `CC1(c2cccc(NC(=O)C3CN=CC=N3)c2)CCSC(N)=N1` (centres unmarked) [Compound 164], for which the melting point lay in the range of 91 to 96 °C.

With `C[C@@]1(c2cc(NC(=O)c3n[nH]c4ccccc34)ccc2F)CCSC(N)=N1` [Compound 241], the melting point lay in the range of 187 to 190 °C.

Regarding `CC1(c2cccc(CO)c2)CCSC(N)=N1` (centres unmarked) [Compound 501], the melting point fell in the range of 155 to 158 °C.

`CC1(c2cccc(NC(=O)c3ncc(Cl)cn3)c2)CCSC(N)=N1` (centres unmarked) [Compound 515]: the melting point lay in the range of 204 to 208 °C.

Take `CC1(C2C=C(/C=N/OCc3cccnc3)C=CC2)CCSC(N)=N1` (centres unmarked) [Compound 584]: the melting point fell in the range of 152 to 153 °C.

`COC(=O)c1cc(C(=O)Nc2cccc(C3(C)CCSC(N)=N3)c2)nn1C` (centres unmarked) [Compound 687] displayed a melting point of 164 to 187 °C.

The compound `C[C@@]1(C2C=C(NC(=O)c3ncc(Cl)cc3N)C=CC2)CCSC(N)=N1` (some centres unmarked) [Compound 743] returned a melting point of 148 to 150 °C.

As to `CC1(c2ccccc2)CCN=C(N)S1.Cl` (centres unmarked) [Compound 783], the melting point was in the range of 205 to 206 °C.

Compound `CC1(c2cc(NC(=O)c3ccc(Cl)cn3)cc(C(F)(F)F)c2)C=C(N)SCC1` (centres unmarked) [Compound 964] registered a melting point of 185 to 187 °C.

Consider `CC1(c2ccc(OC3C=CC=CC3)cc2)CCSC(N)=N1` (centres unmarked) [Compound 1055], for which the melting point was in the range of 169 to 170 °C.

`Cc1ccc(OC2=CCC(C3(C)CCSC(N)=N3)C=C2)cc1` (centres unmarked) [Compound 1067] yielded a melting point of 162 to 165 °C.

In turn, `CC1(c2ccc(F)c(C(=O)NC3=CC(Cl)CC=N3)c2)CCSC(N)=N1` (centres unmarked) [Compound 1068] returned a melting point of 132 to 134 °C.

Compound `CCS/C(N)=N\C(C)C1C=C(NC(=O)c2cnc3ccccc3n2)C=CC1` (centres unmarked) [Compound 1115] showed a melting point of 167 to 170 °C.

In turn, `CC1(c2ccc(F)c(N3N=C4c5cc(Cl)ccc5NCC4C3=O)c2)CCSC(N)=N1` (centres unmarked) [Compound 1166] returned a melting point of 290 to 295 °C.

The next data set relates to brain β amyloid 1-40. The data set is described as follows: Lowering effect on brain β amyloid in mice. The data set is classed as in vivo. Particulars: sc; male Crlj:CD-1(ICR) mouse, 100 mg/kg subcutaneously, brain isolated 3 hours after administration, ELISA; read-out: reduction of brain β amyloid 1-40 compared to vehicle control group. How it is done:
(§1) A test compound was suspended in 0.5% methylcellulose, the final concentration was adjusted to 2 mg/mL, and this was orally administered to male Crg:SD rat (7 to 9 week old) at 10 mg/kg. In a vehicle control group, only 0.5% methylcellulose was administered, and an administration test was performed at 3 to 8 animals per group. A brain was isolated 3 hours after administration, a cerebral hemisphere was isolated, a weight thereof was measured, the hemisphere was rapidly frozen in liquid nitrogen, and stored at −80° C. until the day for extraction. The frozen cerebral hemisphere was transferred to a homogenizer manufactured by Teflon (registered trade mark) under ice cooling, a 5-fold volume of a weight of an extraction buffer (containing 1% CHAPS ({3-[(3-chloroamidopropyl)dimethylammonio]-1-propanesulfonate}), 20 mM Tris-HCl (pH 8.0), 150 mM NaCl, Complete (Roche) protease inhibitor) was added, up and down movement was repeated, and this was homogenized to solubilize for 2 minutes. The suspension was transferred to a centrifugation tube, allowed to stand on an ice for 3 hours or more and, thereafter centrifuged at 100,000×g and 4° C. for 20 minutes. After centrifugation, the supernatant was transferred to an ELISA plate (product No. 27730, Immuno-Biological Laboratories) for measuring 3 amyloid 1-40. ELISA measurement was performed according to the attached instruction. The lowering effect was calculated as a ratio compared to the brain b amyloid 1-40 level of vehicle control group.
A test compound was suspended in 0.5% methylcellulose, the final concentration was adjusted to 10 mg/mL, and this was subcutaneously administered to back of male Crlj:CD-1(ICR) mouse (7 to 8 week old) at 100 mg/kg. In a vehicle control group, only 0.5% methylcellulose was administered. A test was performed at 4 to 8 animals per group. A brain was isolated 3 hours after administration. The subsequent operations were the same as in the above test in rat.
In general terms: ELISA stands for enzyme-linked immunosorbent assay.
With `CC1(c2cc(Br)cc(NC(=O)c3ccc(Cl)cn3)c2)CCSC(N)=N1` (centres unmarked) [Compound 165], the inhibition in vivo at 100 mg/kg was 60 to 90%.

Consider `CC1(c2cccc(C(=O)Nc3ccc(Cl)cn3)c2)CCSC(N)=N1` (centres unmarked) [Compound 220], for which the inhibition in vivo at 100 mg/kg fell in the range of 60 to 90%.

For the compound `Cc1cnc(C(=O)Nc2cccc(C3(C)CCSC(N)=N3)c2)cn1` (centres unmarked) [Compound 309], the inhibition in vivo at 100 mg/kg was 60 to 90%.

Regarding `CC1(c2cc(Cl)cc(NC(=O)c3ccc(Cl)cn3)c2)CCSC(N)=N1` (centres unmarked) [Compound 739], the inhibition in vivo at 100 mg/kg was 60 to 90%.

Regarding `CC1(c2cccc(NC(=O)c3ncc(Br)cn3)c2)CCSC(N)=N1` (centres unmarked) [Compound 900], the inhibition in vivo at 100 mg/kg was 60 to 90%.

Consider `CC1(c2cc(NC(=O)c3ccc(Cl)cn3)cc(C(F)(F)F)c2)C=C(N)SCC1` (centres unmarked) [Compound 964], for which the inhibition in vivo at 100 mg/kg was 60 to 90%.

Take `CC1(c2cc(Br)cc(NC(=O)c3cc4ccccc4s3)c2)CCSC(N)=N1` (centres unmarked) [Compound 1014]: the inhibition in vivo at 100 mg/kg is 60 to 90%.

`CC1(c2cc(Br)cc(NC(=O)c3ccc(Br)cc3)c2)CCSC(N)=N1` (centres unmarked) [Compound 1262]: the inhibition in vivo at 100 mg/kg was in the range of 60 to 90%.

As to `CC1(c2cccc(NC(=O)c3cnc(N=[N+]=N)cn3)c2)CCSC(N)=N1` (centres unmarked) [Compound 1266], the inhibition in vivo at 100 mg/kg was in the range of 60 to 90%.

Still in this data set, the particulars now being: sc; male Crlj:CD-1(ICR) mouse, 100 mg/kg subcutaneously, brain isolated 3 hours after administration; read-out: brain β amyloid 1-40, % of vehicle control group.
On to `CC1(c2cccc(NC(=O)c3ncc(Cl)cc3Cl)c2)CCSC(N)=N1` (centres unmarked) [Compound 127], for which the response vs control in vivo at 100 mg/kg was found to be 25.2%.

For the compound `CC1(c2cc(NC(=O)c3ccc(C(F)(F)F)cn3)ccc2F)CCSC(N)=N1` (centres unmarked) [Compound 396], the response vs control in vivo at 100 mg/kg is 38.4%.

As to `CC1(c2cc(NC(=O)c3ccc(F)cn3)ccc2F)CCSC(N)=N1` (centres unmarked) [Compound 605], the response vs control in vivo at 100 mg/kg stood at 36.5%.

For `CC1(c2cc(NC(=O)c3ccc(Cl)cn3)ccc2F)CCSC(N)=N1` (centres unmarked) [Compound 1043], the response vs control in vivo at 100 mg/kg is 15%.

For `CC1(c2cc(NC(=O)c3ccc(Cl)cn3)ccc2Cl)CCSC(N)=N1` (centres unmarked) [Compound 1199], the response vs control in vivo at 100 mg/kg is 14.1%.

In the case of `CC1(c2cccc(NC(=O)c3ccc(C(F)(F)F)cn3)c2)CCSC(N)=N1` (centres unmarked) [Compound 1244], the response vs control in vivo at 100 mg/kg came to 50.1%.

A further data set relates to brain β amyloid 1-40. The data set is described as follows: Lowering effect on brain β amyloid in rats. In kind it is in vivo. As to conditions: male Crg:SD rat, 10 mg/kg orally, brain isolated 3 hours after administration. Here is the method:
as §1
As for `Cc1cnc(C(=O)Nc2ccc(F)c([C@]3(C)CCSC(N)=N3)c2)cn1` [Compound 622], the “brain β amyloid 1-40, % of vehicle control group” value is reported as 50.1 % of vehicle control group.

In the case of `COc1cnc(C(=O)Nc2ccc(F)c([C@]3(C)CCSC(N)=N3)c2)cn1` [Compound 634], the “brain β amyloid 1-40, % of vehicle control group” value is reported as 21.1 % of vehicle control group.

Staying with this data set, now noted: po; male Crg:SD rat, 10 mg/kg orally, brain isolated 3 hours after administration, ELISA; read-out: reduction of brain β amyloid 1-40 compared to vehicle control group.
On to `C[C@@]1(c2cccc(NC(=O)c3ncc(Cl)cc3Cl)c2)CCSC(N)=N1` [Compound 39], for which the inhibition in vivo at 10 mg/kg lay in the range of 60 to 90%.

As for `CC1(c2cc(NC(=O)c3ncc(Cl)cn3)ccc2F)CCSC(N)=N1` (centres unmarked) [Compound 204], the inhibition in vivo at 10 mg/kg lay within 60 to 90%.

Consider `CC1(c2cccc(NC(=O)c3ccc(F)cn3)c2)CCSC(N)=N1` (centres unmarked) [Compound 212], for which the inhibition in vivo at 10 mg/kg was 60 to 90%.

As to `COc1cnc(C(=O)Nc2cccc(C3(C)CCSC(N)=N3)c2)cn1` (centres unmarked) [Compound 243], the inhibition in vivo at 10 mg/kg lay within 60 to 90%.

On to `Cc1cnc(C(=O)Nc2ccc(F)c(C3(C)CCSC(N)=N3)c2)cn1` (centres unmarked) [Compound 359], for which the inhibition in vivo at 10 mg/kg lay within 60 to 90%.

As to `CC1(c2cccc(NC(=O)c3ncc(C(F)(F)F)cc3Cl)c2)CCSC(N)=N1` (centres unmarked) [Compound 482], the inhibition in vivo at 10 mg/kg is 60 to 90%.

For `C[C@@]1(c2cccc(NC(=O)c3cnc(O)cn3)c2)CCSC(N)=N1` [Compound 733], the inhibition in vivo at 10 mg/kg was 60 to 90%.

Consider `CC1(c2cccc(NC(=O)c3ccc(Cl)cn3)c2)CCSC(N)=N1` (centres unmarked) [Compound 793], for which the inhibition in vivo at 10 mg/kg fell in the range of 60 to 90%.

As to `Cc1cc(C(=O)Nc2ccc(F)c(C3(C)CCSC(N)=N3)c2)c(C)o1` (centres unmarked) [Compound 1282], the inhibition in vivo at 10 mg/kg was in the range of 60 to 90%.

The subject of another data set is brain β amyloid 1-40. Briefly: Lowering effect on brain β amyloid in mice. In kind it is in vivo. As to conditions: sc; male Crlj:CD-1(ICR) mouse, 3 hours after 30 mg/kg of subcutaneous administration; read-out: brain β amyloid 1-40, % of vehicle control group.
In the case of `CC1(c2cccc(NC(=O)c3ccc(C#N)cn3)c2)CCSC(N)=N1` (centres unmarked) [Compound 651], the response vs control in vivo at 30 mg/kg worked out at 52.3%.

A word on the melting point: it is the temperature of the solid-liquid transition.
